Experimental data reported in ChEMBL document CHEMBL1130483, “The synthesis and evaluation of functionalized estratropones: Potent inhibitors of tubulin polymerization” (Bioorg Med Chem Lett, 1997).

Molecular target: Tubulin (Bos taurus, UniProt Q6B856+Q862L2+Q862F3)
Assay: Compound was evaluated for inhibition of tubulin polymerization using purified bovine brain tubulin, activity expressed as IC50
Format: functional, tissue-based

| IC50 [µM] | SMILES |
| --- | --- |
| 14.3 | CN(C)c1ccc2c(cc1=O)CC[C@@H]1[C@@H]2CC[C@]2(C)[C@@H](O)CC[C@@H]12 |
| 19.4 | C/N=c1/cc2c(ccc1O)[C@H]1CC[C@]3(C)[C@@H](O)CC[C@H]3[C@@H]1CC2 |
| 14.4 | C[C@]12CC[C@@H]3c4ccc(=N)c(O)cc4CC[C@H]3[C@@H]1CC[C@@H]2O |
| 14.9 | C[C@]12CC[C@@H]3c4cc(O)c(=O)ccc4CC[C@H]3[C@@H]1CC[C@@H]2O |
| 46.8 | CN(C)c1cc2c(ccc1=O)[C@H]1CC[C@]3(C)[C@@H](O)CC[C@H]3[C@@H]1CC2 |
| 60.7 | C/N=c1\ccc2c(cc1O)CC[C@@H]1[C@@H]2CC[C@]2(C)[C@@H](O)CC[C@@H]12 |
| 16.5 | C[C@]12CC[C@@H]3c4cc(N)c(=O)ccc4CC[C@H]3[C@@H]1CC[C@@H]2O |
| 14.2 | C=Cc1ccc2c(cc1=O)CC[C@@H]1[C@@H]2CC[C@]2(C)[C@@H](O)CC[C@@H]12 |
| 22.8 | C[C@]12CC[C@@H]3c4ccc(=O)c(O)cc4CC[C@H]3[C@@H]1CC[C@@H]2O |
| 52 | C[C@]12CC[C@@H]3c4ccc([N+](=O)[O-])c(=O)cc4CC[C@H]3[C@@H]1CC[C@@H]2O |
| 9.2 | C[C@]12CC[C@@H]3c4ccc(=O)c(N)cc4CC[C@H]3[C@@H]1CC[C@@H]2O |
